Assay results from the SangsterLogP compilation.

Assay: method code SF, from DOI: 10.1021/jf00073a025

SMILES	logP
CNC(=O)ON=C1CSC(C)(C)S1	1.33
CNC(=O)ON=C1SCSC1(C)C	1.31
CNC(=O)ON=C1SCOC1C (stereo in doubt)	0.46
CNC(=O)ON=C1CSCCS1	0.49
CNC(=O)O/N=C1/SC(C)OC1C (centres undefined)	0.96
CNC(=O)O/N=C1/COCS1	0.06
CNC(=O)O/N=C1\SCOC1CCOC (centres undefined)	0.51
CNC(=O)ON=C1COCCS1 (stereo in doubt)	-0
CNC(=O)O/N=C1\SCSC1C (centres undefined)	0.91
CCCC1OCS/C1=N\OC(=O)NC (centres undefined)	1.52
CNC(=O)O/N=C1\SCCSC1(C)C	1.51
CNC(=O)O/N=C1\SCOC1C(C)C (centres undefined)	1.48
CNC(=O)O/N=C1/CSCS1	0.51
CNC(=O)O/N=C1/SCOC1(C)C	0.82
